Converted amounts (≈) assume the structure as drawn.
Columns and labels:
Assay type in all cases: cell-based
[1] = tested on: EC878 E. coli tolC; assay: broth dilution MIC, E. coli EC878; settings: Escherichia coli
Source text: (§1) We have collected MIC data for a total of 50 novel macrolides that this platform has produced against over 21 unique strains of B. subtilis, E. coli, S. aureus, S. pneumoniae, and H. influenzae, including several multidrug-resistant strains, with a special focus on macrolide resistant mechanisms (vide supra). Azithromycin was included as a control macrolide. CLSI standard procedures for broth dilution MIC determination were used. […] These genotypes can be constitutive or inducible. The finding that C4-epi (unnatural) isomers of the “azaketolide” macrolide class have enhanced activities relative to C4 natural isomers is very exciting.

[2] = tested on: BS1725 B. subtilis ermC; assay: broth dilution MIC, B. subtilis BS1725; settings: Bacillus subtilis
Source text: as §1

[3] = tested on: EC882 E. coli imp; assay: broth dilution MIC, E. coli EC882; settings: Escherichia coli
Source text: as §1

[4] = tested on: EC107 E. coli ATCC25922; assay: broth dilution MIC, E. coli EC107; settings: Escherichia coli, read-out: MIC
Source text: as §1

[5] = tested on: SA101 S. aureus ATCC29213; assay: broth dilution MIC, S. aureus SA101; settings: Staphylococcus aureus, ATCC29213, SA101 S. aureus ATCC29213; read-out: MIC
Source text: as §1

[6] = tested on: BS1723 B. subtilis BS168 WT wild type; assay: broth dilution MIC, B. subtilis BS1723; settings: Bacillus subtilis, BS1723 B. subtilis BS168 WT wild type; read-out: MIC
Source text: as §1

SMILES | MIC [1] [µg/mL] | MIC ([2]; BS1725 B. subtilis ermC (+ery)) [µg/mL] | MIC ([2]; BS1725 B. subtilis ermC (−ery)) [µg/mL] | MIC [3] [µg/mL] | MIC [4] [µg/mL] | MIC [5] [µg/mL] | MIC [6] [µg/mL]
CC[C@H]1OC(=O)[C@H](C)C(=O)C[C@@H](O[C@@H]2OC(C)CC(N(C)C)C2O)[C@@](C)(OC)C[C@@H](C)CN(C(C)=O)[C@H](C)[C@H]2N(CCCCn3cc(-c4cccnn4)nn3)C(=O)O[C@]12C (some centres unmarked) [FSM-30513] | > 32 | > 32 | > 32 | > 32 | > 32 | > 32 | > 32
CC[C@H]1OC(=O)[C@](C)(F)C(=O)C[C@@H](O[C@@H]2OC(C)CC(N(C)C)C2O)[C@](C)(OC)C[C@@H](C)CN[C@H](C)[C@H]2N(CCCCn3cc(-c4nccs4)nn3)C(=O)O[C@]12C (some centres unmarked) [FSM-10666] | 16 (≈ 19.4 µM) | > 32 | > 32 | 4 (≈ 4.85 µM) | > 32 | > 32 | > 32
CC[C@H]1OC(=O)[C@H](C)C(=O)C[C@@H](O[C@@H]2OC(C)CC(N(C)C)C2O)[C@@](C)(OC)C[C@@H](C)CN[C@H](C)[C@H]2N(CCCCn3cc(-c4ccccn4)nn3)C(=O)O[C@]12C (some centres unmarked) [FSM-30517] | > 32 | > 32 | > 32 | > 32 | > 32 | > 32 | > 32
CC[C@H]1OC(=O)[C@H](C)C(=O)C[C@@H](O[C@@H]2OC(C)CC(N(C)C)C2O)[C@](C)(OC)C[C@@H](C)CN(C(C)=O)[C@H](C)[C@H]2N(CCCCn3cc(-c4cccnn4)nn3)C(=O)O[C@]12C (some centres unmarked) [FSM-10794] | 8 (≈ 9.49 µM) | > 32 | > 32 | 16 (≈ 19 µM) | > 32 | > 32 | > 32
CC[C@H]1OC(=O)[C@H](C)C(=O)C[C@@H](O[C@@H]2OC(C)CC(N(C)C)C2O)[C@](C)(OC)C[C@@H](C)CN[C@H](C)[C@H]2N(CCCCn3cc(-c4nc5ccccc5s4)nn3)C(=O)O[C@]12C (some centres unmarked) [FSM-10788] | 1 (≈ 1.17 µM) | > 32 | > 32 | 0.0625 (≈ 0.073 µM) | > 32 | > 32 | > 32
CC[C@H]1OC(=O)[C@H](C)C(=O)C[C@@H](O[C@@H]2OC(C)CC(N(C)C)C2O)[C@](C)(OC)C[C@@H](C)CN[C@H](C)[C@H]2N(CCCCn3cc(-c4cccnn4)nn3)C(=O)O[C@]12C (some centres unmarked) [FSM-10785] | 2 (≈ 2.5 µM) | > 32 | > 32 | 1 (≈ 1.25 µM) | > 32 | > 32 | > 32
CC[C@H]1OC(=O)[C@H](C)C(=O)C[C@@H](O[C@@H]2OC(C)CC(N(C)C)C2O)[C@@](C)(OC)C[C@@H](C)CN[C@H](C)[C@H]2N(CCCCn3cc(-c4nccs4)nn3)C(=O)O[C@]12C (some centres unmarked) [FSM-30501] | > 32 | > 32 | > 32 | > 32 | > 32 | > 32 | > 32
CC[C@H]1OC(=O)[C@](C)(F)C(=O)C[C@@H](O[C@@H]2OC(C)CC(N(C)C)C2O)[C@](C)(OC)C[C@@H](C)CN[C@H](C)[C@H]2N(CCCCn3cc(-c4ccccn4)nn3)C(=O)O[C@]12C (some centres unmarked) [FSM-10662] | 16 (≈ 19.6 µM) | > 32 | > 32 | 4 (≈ 4.89 µM) | > 32 | > 32 | > 32
CC[C@H]1OC(=O)[C@H](C)C(=O)[C@H](C)[C@@H](O[C@@H]2OC(C)CC(N(C)C)C2O)[C@](C)(OC)C[C@@H](C)CN(C(C)=O)[C@H](C)[C@H]2N(CCCCn3cc(-c4nccs4)nn3)C(=O)O[C@]12C (some centres unmarked) [FSM-20763] | 4 (≈ 4.64 µM) | > 32 | – | 2 (≈ 2.32 µM) | > 32 | 16 (≈ 18.6 µM) | 16 (≈ 18.6 µM)

From US9982005B2, “Macrolides and methods of their preparation and use” (President and Fellows of Harvard College, priority 2013, dated 2018)
